Test results: US20100273189A1, “NON SEPARATION ASSAYS WITH SELECTIVE SIGNAL INHIBITORS” (BECKMAN COULTER, INC., priority 2009, published 2010)

Key:
Type in all cases: biochemical
PSA = assay: Effect of trigger pH: PSA on LodeStar particles with ascorbate
Experimental: (§1) B. In order to determine the effect of trigger solution pH on a variety of test assay systems, a series of experiments were conducted varying trigger pH. […] In the tables, two pH values are listed for each data set. The first is the pH of the buffer sample added to the reaction mixture. The second is the resulting pH of the final reaction mix.

CK-MB = assay: Effect of trigger pH: CK-MB on LodeStars with ascorbate
Experimental: as §1

biotin-HRP = assay: Effect of ascorbic acid incubation time on chemiluminescence, Dynal M-280 biotin-HRP system; conditions: incubation time 80-330 seconds; ascorbic acid 0-200 μM; in words
Experimental: The effect of the length of time that a sample is exposed to ascorbic acid on the observed reduction of chemiluminescence intensity was investigated in a series of experiments employing the Dynal M-280 PMP particles and biotin-HRP system described in Example 11. Briefly, biotin-labeled PMPs, and various biotin-HRP/HRP solutions were allowed to bind and ascorbic acid solutions added. After a delay period ranging from 80-330 seconds, trigger solution A was injected and the chemiluminescence intensity integrated. The biotin-HRP/HRP solutions contained a total of 200 ng/mL HRP in the proportion 1:200, 8:192, and 32:168 biotin-HRP:HRP. Trials were run using various concentrations of ascorbic acid as the Sample in water at 0, 25, 50 100 and 200 μM.

[1] = Control (7.7), S1, PSA 400 pg/ml
[2] = Control (7.7), S2, PSA 1400 pg/ml
[3] = Control (7.7), S3, PSA 7000 pg/ml
[4] = Control (7.7), S4, PSA 51000 pg/ml
[5] = Control (7.7), S5, PSA 101600 pg/ml
[6] = pH 6.0 (6.2), S1, PSA 400 pg/ml
[7] = pH 6.0 (6.2), S2, PSA 1400 pg/ml
[8] = pH 6.0 (6.2), S3, PSA 7000 pg/ml
[9] = pH 6.0 (6.2), S4, PSA 51000 pg/ml
[10] = pH 6.0 (6.2), S5, PSA 101600 pg/ml
[11] = pH 7.0 (7.4), S1, PSA 400 pg/ml
[12] = pH 7.0 (7.4), S2, PSA 1400 pg/ml
[13] = pH 7.0 (7.4), S3, PSA 7000 pg/ml
[14] = pH 7.0 (7.4), S4, PSA 51000 pg/ml
[15] = pH 7.0 (7.4), S5, PSA 101600 pg/ml
[16] = pH 8.0 (7.9), S1, PSA 400 pg/ml
[17] = pH 8.0 (7.9), S2, PSA 1400 pg/ml
[18] = pH 8.0 (7.9), S3, PSA 7000 pg/ml
[19] = pH 8.0 (7.9), S4, PSA 51000 pg/ml
[20] = pH 8.0 (7.9), S5, PSA 101600 pg/ml
[21] = pH 9.0 (8.4), S1, PSA 400 pg/ml
[22] = pH 9.0 (8.4), S2, PSA 1400 pg/ml
[23] = pH 9.0 (8.4), S3, PSA 7000 pg/ml
[24] = pH 9.0 (8.4), S4, PSA 51000 pg/ml
[25] = pH 9.0 (8.4), S5, PSA 101600 pg/ml
[26] = Control (7.0), S1, CK-MB 3200 ng/ml
[27] = Control (7.0), S2, CK-MB 9150 ng/ml
[28] = Control (7.0), S3, CK-MB 26300 ng/ml
[29] = Control (7.0), S4, CK-MB 94600 ng/ml
[30] = Control (7.0), S5, CK-MB 268750 ng/ml
[31] = pH 6.0 (5.9), S1, CK-MB 3200 ng/ml
[32] = pH 6.0 (5.9), S2, CK-MB 9150 ng/ml
[33] = pH 6.0 (5.9), S3, CK-MB 26300 ng/ml
[34] = pH 6.0 (5.9), S4, CK-MB 94600 ng/ml
[35] = pH 6.0 (5.9), S5, CK-MB 268750 ng/ml
[36] = pH 7.0 (6.8), S1, CK-MB 3200 ng/ml
[37] = pH 7.0 (6.8), S2, CK-MB 9150 ng/ml
[38] = pH 7.0 (6.8), S3, CK-MB 26300 ng/ml
[39] = pH 7.0 (6.8), S4, CK-MB 94600 ng/ml
[40] = pH 7.0 (6.8), S5, CK-MB 268750 ng/ml
[41] = pH 8.0 (7.8), S1, CK-MB 3200 ng/ml
[42] = pH 8.0 (7.8), S2, CK-MB 9150 ng/ml
[43] = pH 8.0 (7.8), S3, CK-MB 26300 ng/ml
[44] = pH 8.0 (7.8), S4, CK-MB 94600 ng/ml
[45] = pH 8.0 (7.8), S5, CK-MB 268750 ng/ml
[46] = pH 9.0 (8.6), S1, CK-MB 3200 ng/ml
[47] = pH 9.0 (8.6), S2, CK-MB 9150 ng/ml
[48] = pH 9.0 (8.6), S3, CK-MB 26300 ng/ml
[49] = pH 9.0 (8.6), S4, CK-MB 94600 ng/ml
[50] = pH 9.0 (8.6), S5, CK-MB 268750 ng/ml

For `O=C1O[C@H]([C@@H](O)CO)C(O)=C1O` [Ascorbic Acid, Ascorbic acid], the “Mean RLU” value (PSA; Control (7.7), S0, PSA 0 pg/ml) was 8,192 RLU, the “Mean RLU” value (PSA; [1]) was 91,301 RLU and the S/S0 (PSA; [1]) was 11.1. The “Mean RLU” value (PSA; [2]) was 403,035 RLU, the S/S0 (PSA; [2]) was 49.2 and the “Mean RLU” value (PSA; [3]) was 2,803,433 RLU. For the same compound, the S/S0 (PSA; [3]) was 342.2, the “Mean RLU” value (PSA; [4]) was 10,490,375 RLU and the S/S0 (PSA; [4]) was 1280.6. The “Mean RLU” value (PSA; [5]) was 10,598,780 RLU, the S/S0 (PSA; [5]) was 1293.8 and the “Mean RLU” value (PSA; pH 6.0 (6.2), S0, PSA 0 pg/ml) was 3,301 RLU. For the same compound, the “Mean RLU” value (PSA; [6]) was 34,485 RLU, the S/S0 (PSA; [6]) was 10.4 and the “Mean RLU” value (PSA; [7]) was 114,219 RLU. The S/S0 (PSA; [7]) was 34.6, the “Mean RLU” value (PSA; [8]) was 786,859 RLU and the S/S0 (PSA; [8]) was 238.3. The “Mean RLU” value (PSA; [9]) was 3,198,045 RLU, the S/S0 (PSA; [9]) was 968.7 and the “Mean RLU” value (PSA; [10]) was 3,728,345 RLU. The S/S0 (PSA; [10]) was 1129.3, the “Mean RLU” value (PSA; pH 7.0 (7.4), S0, PSA 0 pg/ml) was 7,704 RLU and the “Mean RLU” value (PSA; [11]) was 87,221 RLU. The S/S0 (PSA; [11]) was 11.3, the “Mean RLU” value (PSA; [12]) was 333,253 RLU and the S/S0 (PSA; [12]) was 43.3. The “Mean RLU” value (PSA; [13]) was 2,640,633 RLU, the S/S0 (PSA; [13]) was 342.8 and the “Mean RLU” value (PSA; [14]) was 9,524,603 RLU. For the same compound, the S/S0 (PSA; [14]) was 1236.3, the “Mean RLU” value (PSA; [15]) was 10,001,948 RLU and the S/S0 (PSA; [15]) was 1298.3. For the same compound, the “Mean RLU” value (PSA; pH 8.0 (7.9), S0, PSA 0 pg/ml) was 9,345 RLU, the “Mean RLU” value (PSA; [16]) was 96,427 RLU and the S/S0 (PSA; [16]) was 10.3. For the same compound, the “Mean RLU” value (PSA; [17]) was 429,327 RLU, the S/S0 (PSA; [17]) was 45.9 and the “Mean RLU” value (PSA; [18]) was 3,433,037 RLU. For the same compound, the S/S0 (PSA; [18]) was 367.4, the “Mean RLU” value (PSA; [19]) was 11,497,652 RLU and the S/S0 (PSA; [19]) was 1230.3. For the same compound, the “Mean RLU” value (PSA; [20]) was 11,461,215 RLU, the S/S0 (PSA; [20]) was 1226.4 and the “Mean RLU” value (PSA; pH 9.0 (8.4), S0, PSA 0 pg/ml) was 5,821 RLU. The “Mean RLU” value (PSA; [21]) was 73,801 RLU, the S/S0 (PSA; [21]) was 12.7 and the “Mean RLU” value (PSA; [22]) was 315,528 RLU. The S/S0 (PSA; [22]) was 54.2, the “Mean RLU” value (PSA; [23]) was 2,592,673 RLU and the S/S0 (PSA; [23]) was 445.4. For the same compound, the “Mean RLU” value (PSA; [24]) was 11,443,659 RLU, the S/S0 (PSA; [24]) was 1965.8 and the “Mean RLU” value (PSA; [25]) was 11,479,280 RLU. The S/S0 (PSA; [25]) was 1971.9, the “Mean RLU” value (CK-MB; Control (7.0), S0, CK-MB 600 ng/ml) was 1,837 RLU and the “Mean RLU” value (CK-MB; [26]) was 7,380 RLU. For the same compound, the S/S0 (CK-MB; [26]) was 4.0, the “Mean RLU” value (CK-MB; [27]) was 22,931 RLU and the S/S0 (CK-MB; [27]) was 12.5. For the same compound, the “Mean RLU” value (CK-MB; [28]) was 75,857 RLU, the S/S0 (CK-MB; [28]) was 41.3 and the “Mean RLU” value (CK-MB; [29]) was 427,483 RLU. The S/S0 (CK-MB; [29]) was 232.7, the “Mean RLU” value (CK-MB; [30]) was 2,055,748 RLU and the S/S0 (CK-MB; [30]) was 1118.9. The “Mean RLU” value (CK-MB; pH 6.0 (5.9), S0, CK-MB 600 ng/ml) was 693 RLU, the “Mean RLU” value (CK-MB; [31]) was 2,849 RLU and the S/S0 (CK-MB; [31]) was 4.1. The “Mean RLU” value (CK-MB; [32]) was 6,812 RLU, the S/S0 (CK-MB; [32]) was 9.8 and the “Mean RLU” value (CK-MB; [33]) was 28,129 RLU. The S/S0 (CK-MB; [33]) was 40.6, the “Mean RLU” value (CK-MB; [34]) was 119,144 RLU and the S/S0 (CK-MB; [34]) was 171.8. For the same compound, the “Mean RLU” value (CK-MB; [35]) was 754,177 RLU, the S/S0 (CK-MB; [35]) was 1087.8 and the “Mean RLU” value (CK-MB; pH 7.0 (6.8), S0, CK-MB 600 ng/ml) was 1,788 RLU. For the same compound, the “Mean RLU” value (CK-MB; [36]) was 8,409 RLU, the S/S0 (CK-MB; [36]) was 4.7 and the “Mean RLU” value (CK-MB; [37]) was 22,669 RLU. For the same compound, the S/S0 (CK-MB; [37]) was 12.7, the “Mean RLU” value (CK-MB; [38]) was 84,704 RLU and the S/S0 (CK-MB; [38]) was 47.4. The “Mean RLU” value (CK-MB; [39]) was 370,193 RLU, the S/S0 (CK-MB; [39]) was 207.0 and the “Mean RLU” value (CK-MB; [40]) was 2,084,173 RLU. For the same compound, the S/S0 (CK-MB; [40]) was 1165.6, the “Mean RLU” value (CK-MB; pH 8.0 (7.8), S0, CK-MB 600 ng/ml) was 3,263 RLU and the “Mean RLU” value (CK-MB; [41]) was 15,725 RLU. For the same compound, the S/S0 (CK-MB; [41]) was 4.8, the “Mean RLU” value (CK-MB; [42]) was 42,805 RLU and the S/S0 (CK-MB; [42]) was 13.1. The “Mean RLU” value (CK-MB; [43]) was 150,140 RLU, the S/S0 (CK-MB; [43]) was 46.0 and the “Mean RLU” value (CK-MB; [44]) was 788,451 RLU. The S/S0 (CK-MB; [44]) was 241.7, the “Mean RLU” value (CK-MB; [45]) was 4,618,668 RLU and the S/S0 (CK-MB; [45]) was 1415.6. For the same compound, the “Mean RLU” value (CK-MB; pH 9.0 (8.6), S0, CK-MB 600 ng/ml) was 1,512 RLU, the “Mean RLU” value (CK-MB; [46]) was 9,508 RLU and the S/S0 (CK-MB; [46]) was 6.3. The “Mean RLU” value (CK-MB; [47]) was 28,387 RLU, the S/S0 (CK-MB; [47]) was 18.8 and the “Mean RLU” value (CK-MB; [48]) was 74,359 RLU. For the same compound, the S/S0 (CK-MB; [48]) was 49.2, the “Mean RLU” value (CK-MB; [49]) was 561,103 RLU and the S/S0 (CK-MB; [49]) was 371.1. For the same compound, the “Mean RLU” value (CK-MB; [50]) was 3,286,012 RLU, the S/S0 (CK-MB; [50]) was 2173.3 and the “effect of ascorbic acid incubation time on observed chemiluminescence” value (biotin-HRP) was “does not appear to cause a significant effect”.
